# Reference: patent US8124381B2, “Process and materials for production of glucosamine and N-acetylglucosamine” (Arkion Life Sciences, priority 2002, dated 2012)
# Numbering of substitutions follows the chain as printed. Names may count otherwise.
# B1: E. coli GlmS mutant GlmS*124, SEQ ID NO:8 (Leu469Pro) (strain 2123-124) (Escherichia coli K-12; L469P) (protein)
# chain: CGIVGAIAQRDVAEILLEGLRRLEYRGYDSAGLAVVDAEGHMTRLRRLGKVQMLAQAAEEHPLHGGTGIAHTRWATHGEPSEVNAHPHVSEHIVVVHNGIIENHEPLREELKARGYTFVSETDTEVIAHLVNWELKQGGTLREAVLRAIPQLRGAYGTVIMDSRHPDTLLAARSGSPLVIGLGMGENFIASDQLALLPVTRRFIFLEEGDIAEITRRSVNIFDKTGAEVKRQDIESNLQYDAGDKGIYRHYMQKEIYEQPNAIKNTLTGRISHGQVDLSELGPNADELLSKVEHIQILACGTSYNSGMVSRYWFESLAGIPCDVEIASEFRYRKSAVRRNSLMITLSQSGETADTLAGLRLSKELGYLGSLAICNVPGSSLVRESDLALMTNAGTEIGVASTKAFTTQLTVLLMLVAKLSRLKGLDASIEHDIVHGLQALPSRIEQMLSQDKRIEALAEDFSDKHHAPFLGRGDQYPIALEGALKLKEISYIHAEAYAAGELKHGPLALIDADMPVIVVAPNNELLEKLKSNIEEVRARGGQLYVFADQDAGFVSSDNMHIIEMPHVEEVIAPIFYTVPLQLLAYHVALIKGTDVDQPRNLAKSVTVE
# notes: made in house; host or cells: E. coli strain 2123-124, cell extract
# B2: E. coli GlmS mutant GlmS*72, SEQ ID NO:14 (Glu15Lys, Asp387Val, Ser450Pro, Glu525Gly) (strain 2123-72) (Escherichia coli K-12; D387V/E15K/E525G/S450P) (protein)
# chain: B1 chain with E14K, D386V, S449P, P468L, E524G
# notes: made in house; host or cells: E. coli strain 2123-72 (from 7101-17(DE3), plasmid with glmS*72 integrated), cell extract
# What was measured:
# [1] = molecular target: T1, E. coli glucosamine synthase GlmS*54 (Escherichia coli, UniProt P17169, A39T/G472S/R250C); assay: Effects of phosphorylated sugars on glucosamine synthase; format: biochemical
# T1 construct: made in house; host or cells: E. coli 7107-18 (printed '7017-18'; T7-glmS*54 integrated at galK) and strains derived from it; crude extract
# T1 sequence (P17169 2-609 A39T/R250C/G472S): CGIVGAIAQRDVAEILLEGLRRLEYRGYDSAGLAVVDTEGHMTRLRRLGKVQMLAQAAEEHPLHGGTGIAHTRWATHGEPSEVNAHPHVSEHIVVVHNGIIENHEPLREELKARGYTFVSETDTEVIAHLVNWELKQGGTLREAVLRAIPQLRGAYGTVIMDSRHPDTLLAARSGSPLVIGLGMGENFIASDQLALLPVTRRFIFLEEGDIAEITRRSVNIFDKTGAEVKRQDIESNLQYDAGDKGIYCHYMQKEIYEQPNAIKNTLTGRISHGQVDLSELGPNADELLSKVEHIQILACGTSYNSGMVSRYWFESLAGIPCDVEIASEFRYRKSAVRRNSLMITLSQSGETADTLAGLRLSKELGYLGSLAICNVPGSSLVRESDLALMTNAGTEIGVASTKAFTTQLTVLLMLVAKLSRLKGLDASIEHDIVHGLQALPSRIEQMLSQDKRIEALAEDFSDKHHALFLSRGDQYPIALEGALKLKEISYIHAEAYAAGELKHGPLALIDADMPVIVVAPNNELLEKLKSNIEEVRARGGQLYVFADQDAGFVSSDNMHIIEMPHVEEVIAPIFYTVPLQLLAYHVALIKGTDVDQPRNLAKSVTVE
# Description: Glucosamine synthetase activity was examined in the presence of various phosphorylated sugars. Crude enzyme extracts was prepared from cells of 7017-18 grown in shake flasks for 24 hours with lactose induction.
# [2] = substrate: O=P(O)(O)OC[C@H]1OC(O)(CO)[C@@H](O)[C@@H]1O; assay: GlmS inhibition and Michaelis-Menten kinetics; format: biochemical, Escherichia coli
# Description: Different glucosamine synthetase enzymes, including native B. subtillus GlmS, native E. coli GlmS and mutant E. coli GlmS, were studied in vitro. Cells of various E. coli strains were grown in the M9A medium, harvested, and frozen. Cells extracts were prepared and the glucosamine synthetases were characterized and compared.
# Enzyme sensitivities to the reaction product glucosamine-6-P were examined. […] This figure highlights the dramatic difference between the wild type GlmS and these mutant GlmS strains.
# The Mutants 2123-54 and the B. subtilis enzyme have higher Ki values (Table 6). Measured Ki constants for several of these mutants are 4 to 8 times the value for the native enzyme in strain 2123-12. From shake flask studies it is apparent that decreased sensitivity to glucosamine-6-P allows higher glucosamine levels to accumulate.
# These values are slightly higher than those obtained with the native enzyme.
Molecule,activity at 10000 µM [1] [%],inhibition of glucosamine synthetase (in words) [1],Km [2] [µM]
"CC(=O)N[C@H]1C(OP(=O)(O)O)O[C@H](CO)[C@@H](O)[C@@H]1O (some centres unmarked) [N-acetylglucosamine-1-P, N-acetylglucosamine-1-phosphate]",100,,
"N[C@H]1C(OP(=O)(O)O)O[C@H](CO)[C@@H](O)[C@@H]1O (some centres unmarked) [glucosamine-1-P, glucosamine-1-phosphate]",79,inhibited,
B1,,,1100
B2,,,950
